In patent EP0504184B1, “ACTIVE AGENT AGAINST RETROVIRUS GROUP VIRUSES, COMPOSITIONS CONTAINING SAME AND THEIR USE” (PREVISAN S.A., priority 1989, dated 1991):

Columns and labels:
cellules Supt-1 = assay: Toxicity test of chloroazodine towards Supt-1 cells (cell viability); format: cell-based, humaine
From the text: Ces essais comprennent comme matériel de départ : • de la N, N'-dichloroazodicarbonamidine (chloroazodine) à 95 % pure. La pureté a été examinée par chromatographie en couche mince et par un test de carbone-hydrogène (v. BRAZ G.I. et cons., J. Applied Chem. (USSR) 17,565-9 (1944)). • un surnageant de cultures de cellules (Molt-3) continuellement productrices de virus VIH-1. Le surnageant viral utilisé a une activité de transcriptase inverse de 1 x 10^6 cpm/ml. • des cellules d'une lignée T humaine continue de phénotype T4 (Supt-1) cultivée en milieu RPMI, additionné de 10 % de sérum de veau foetal et de 1 % de glutamine.
Essai de toxicité de la chloroazodine vis-à-vis des cellules Supt-1.
La chloroazodine à la dilution de 1/500, ce qui correspond à 2 mg/ml, est toxique pour les cellules Supt-1.

lymphocytes infectés = assay: Mortality of HIV-1 infected human peripheral blood lymphocytes with chloroazodine; format: cell-based, humains; details: for Nombre de cellules mortes / Nombre de cellules vivantes: HIV-1 infected lymphocytes + chloroazodine 1/3000
From the text: Des lymphocytes humains provenant du sang périphérique de donneurs séro-négatifs (PBL) sont infectés par du VIH-1 provenant du surnageant de cellules Molt-3, c'est-à-dire de cellules continuellement productrices de ces virus.
Au jour 8 de l'infection, celle-ci est contrôlée par l'expression de l'antigène p 24 (Test Elisa, voir Exemple 4).
Quatre populations cellulaires sont étudiées quant à leur mortalité : • 1 des lymphocytes normaux en culture (Témoin A). • 2 des lymphocytes normaux en présence de chloroazodine 1/3000. • 3 des lymphocytes infectés non traités (Témoin B). • 4 des lymphocytes infectés, en présence de chloroazodine 1/3000. Tableau 4

[1] = tested on: virus VIH-1 dans des cellules Molt-3 B; assay: p24 antigen in culture supernatants of treated Molt-3 B cells continuously producing HIV (optical density); format: cell-based; details: for Mesure du pouvoir infectieux des virus VIH-1 dans des cellules Molt-3 B (densité optique): p24 in supernatant
Procedure: Des cellules Molt-3 B, continuellement productrices de virus VIH, ont été traitées par de la chloroazodine à des concentrations de 1/1500 et 1/3000 pendant des périodes de 1 minute, 10 minutes et 30 minutes.
Les antigènes p 24 exprimes dans les surnageants de culture ont été évalués après 24 h., 48 h., 72 h. et 96 h.
Pour mesurer cet effet en contournant la toxicité du produit pour les cellules infectées, on a choisi de prendre un nombre cellulaire extraordinairement élevé de manière à conserver un nombre très faible, mais suffisant, de cellules vivantes après 96 h. Tableau 5

[2] = tested on: virus VIH-1 dans des lymphocytes humains infectés; assay: p24 antigen of treated HIV-1 infected human lymphocytes (optical density); format: cell-based; details: chloroazodine 1/3000
From the text: On a reproduit l'expérience de l'exemple 7, mais avec des lymphocytes humains infectés par du VIH-1. La chloroazodine a été utilisée à la dose de 1/3000 pendant 1 heure, 3 heures et 6 heures sur les cellules infectées. Tableau 6
Afin de conserver un nombre suffisant de lymphocytes vivants il a fallu limiter l'expérimentation à 6 heures.

provirus VIH-1 = assay: Integration of the viral genome into chromosomal DNA of Supt-1 cells (PCR of gag, LTR, env; hybridisation with P32 probes); format: cell-based; details: for provirus VIH-1 dans les cellules Supt-1: hybridisation with P32 probes for gag, LTR, env
From the text: Intégration du génome viral dans l'ADN chromosomial des cellules Supt-1.
Par amplification génétique grâce à une polymérase thermostable, on met en évidence la présence des gènes "gag", "LTR" et "env" du provirus VIH-1. Cette technique est appelée P.C.R. (Polymerase Chain Reaction) (CHIN-YIH OU et cons., Sciences, 239, 295-297, 1988).
Cette technique est appliquée pour la détection du provirus VIH-1 dans le génome des cellules Supt-1 inoculées par du virus VIH-1 incubé avec de la chloroazodine, comme décrit dans l'exemple 4.

NC(N=NC(N)=NCl)=NCl [chloroazodine, N, N'-dichloroazodicarbonamidine]
toxicité vis-à-vis des cellules Supt-1 (cellules Supt-1; dilution 1/500 (2 mg/ml)): toxique | viabilité cellulaire (cellules Supt-1) (cellules Supt-1; dilution 1/1500 (660 µg/ml)): ne diminuent par contre pas la viabilité cellulaire | viabilité cellulaire (cellules Supt-1) (cellules Supt-1; dilution 1/3000 (330 µg/ml)): ne diminuent par contre pas la viabilité cellulaire | Nombre de cellules mortes (lymphocytes infectés; duration 1 min): 31 | Nombre de cellules vivantes (lymphocytes infectés; duration 1 min): 17 | Nombre de cellules mortes (lymphocytes infectés; duration 10 min): 34 | Nombre de cellules vivantes (lymphocytes infectés; duration 10 min): 14 | Nombre de cellules mortes (lymphocytes infectés; duration 30 min): 39 | Nombre de cellules vivantes (lymphocytes infectés; duration 30 min): 21 | Nombre de cellules mortes (lymphocytes infectés; duration 180 min): 20 | Nombre de cellules vivantes (lymphocytes infectés; duration 180 min): 8 | toxicité sélective pour des cellules infectées (lymphocytes infectés; conclusion from comparison of infected and normal lymphocytes, chloroazodine 1/3000): toxicité sélective de la chloroazodine pour des cellules infectées | Mesure du pouvoir infectieux des virus VIH-1 dans des cellules Molt-3 B (densité optique) ([1]; chloroazodine 1/1500, treatment 1 min, 24 h. after treatment): 0,175 | Mesure du pouvoir infectieux des virus VIH-1 dans des cellules Molt-3 B (densité optique) ([1]; chloroazodine 1/1500, treatment 1 min, 48 h. after treatment): 0,175 | Mesure du pouvoir infectieux des virus VIH-1 dans des cellules Molt-3 B (densité optique) ([1]; chloroazodine 1/1500, treatment 1 min, 72 h. after treatment): 0,167 | Mesure du pouvoir infectieux des virus VIH-1 dans des cellules Molt-3 B (densité optique) ([1]; chloroazodine 1/1500, treatment 10 min, 24 h. after treatment): 0,182 | Mesure du pouvoir infectieux des virus VIH-1 dans des cellules Molt-3 B (densité optique) ([1]; chloroazodine 1/1500, treatment 10 min, 48 h. after treatment): 0,181 | Mesure du pouvoir infectieux des virus VIH-1 dans des cellules Molt-3 B (densité optique) ([1]; chloroazodine 1/1500, treatment 10 min, 72 h. after treatment): 0,145 | Mesure du pouvoir infectieux des virus VIH-1 dans des cellules Molt-3 B (densité optique) ([1]; chloroazodine 1/1500, treatment 30 min, 24 h. after treatment): 0,194 | Mesure du pouvoir infectieux des virus VIH-1 dans des cellules Molt-3 B (densité optique) ([1]; chloroazodine 1/1500, treatment 30 min, 48 h. after treatment): 0,155 | Mesure du pouvoir infectieux des virus VIH-1 dans des cellules Molt-3 B (densité optique) ([1]; chloroazodine 1/1500, treatment 30 min, 72 h. after treatment): 0,173 | Mesure du pouvoir infectieux des virus VIH-1 dans des cellules Molt-3 B (densité optique) ([1]; chloroazodine 1/3000, treatment 1 min, 24 h. after treatment): 0,247 | Mesure du pouvoir infectieux des virus VIH-1 dans des cellules Molt-3 B (densité optique) ([1]; chloroazodine 1/3000, treatment 1 min, 48 h. after treatment): 0,154 | Mesure du pouvoir infectieux des virus VIH-1 dans des cellules Molt-3 B (densité optique) ([1]; chloroazodine 1/3000, treatment 1 min, 72 h. after treatment): 0,170 | Mesure du pouvoir infectieux des virus VIH-1 dans des cellules Molt-3 B (densité optique) ([1]; chloroazodine 1/3000, treatment 10 min, 24 h. after treatment): 0,180 | Mesure du pouvoir infectieux des virus VIH-1 dans des cellules Molt-3 B (densité optique) ([1]; chloroazodine 1/3000, treatment 10 min, 48 h. after treatment): 0,176 | Mesure du pouvoir infectieux des virus VIH-1 dans des cellules Molt-3 B (densité optique) ([1]; chloroazodine 1/3000, treatment 10 min, 72 h. after treatment): 0,152 | Mesure du pouvoir infectieux des virus VIH-1 dans des cellules Molt-3 B (densité optique) ([1]; chloroazodine 1/3000, treatment 30 min, 24 h. after treatment): 0,211 | Mesure du pouvoir infectieux des virus VIH-1 dans des cellules Molt-3 B (densité optique) ([1]; chloroazodine 1/3000, treatment 30 min, 48 h. after treatment): 0,162 | Mesure du pouvoir infectieux des virus VIH-1 dans des cellules Molt-3 B (densité optique) ([1]; chloroazodine 1/3000, treatment 30 min, 72 h. after treatment): 0,176 | production de VIH par des cellules infectées ([1]; conclusion of example 7, Molt-3 B cells, chloroazodine 1/1500 and 1/3000): capable d'empêcher la production de VIH par des cellules infectées | Mesure du pouvoir infectieux des virus VIH-1 dans des lymphocytes humains infectés (densité optique) ([2]; treatment 1 hour, 4 days after treatment): 0,170 | Mesure du pouvoir infectieux des virus VIH-1 dans des lymphocytes humains infectés (densité optique) ([2]; treatment 1 hour, 7 days after treatment): 0,170 | Mesure du pouvoir infectieux des virus VIH-1 dans des lymphocytes humains infectés (densité optique) ([2]; treatment 1 hour, 11 days after treatment): 0,114 | Mesure du pouvoir infectieux des virus VIH-1 dans des lymphocytes humains infectés (densité optique) ([2]; treatment 3 hours, 4 days after treatment): 0,197 | Mesure du pouvoir infectieux des virus VIH-1 dans des lymphocytes humains infectés (densité optique) ([2]; treatment 3 hours, 7 days after treatment): 0,158 | Mesure du pouvoir infectieux des virus VIH-1 dans des lymphocytes humains infectés (densité optique) ([2]; treatment 3 hours, 11 days after treatment): 0,095 | Mesure du pouvoir infectieux des virus VIH-1 dans des lymphocytes humains infectés (densité optique) ([2]; treatment 6 hours, 4 days after treatment): 0,192 | Mesure du pouvoir infectieux des virus VIH-1 dans des lymphocytes humains infectés (densité optique) ([2]; treatment 6 hours, 7 days after treatment): 0,203 | Mesure du pouvoir infectieux des virus VIH-1 dans des lymphocytes humains infectés (densité optique) ([2]; treatment 6 hours, 11 days after treatment): 0,078 | oligonucléotides amplifiés et visibles aux UV (provirus VIH-1; PCR, ethidium bromide): apparaissent uniquement dans les tubes à essais qui correspondent à une inoculation par du virus VIH-1 non traité à la chloroazodine | provirus VIH-1 dans les cellules Supt-1 (provirus VIH-1; virions treated at dilution 1/1500): absence totale de provirus VIH-1 | provirus VIH-1 dans les cellules Supt-1 (provirus VIH-1; virions treated at dilution 1/3000): absence totale de provirus VIH-1
